# Columns and labels:
# mice [1] = assay: PQ-induced lethality in mice, single intraperitoneal injection, dose and timing finding; type: in vivo
# Method: Firstly, the optimal dose and timing for PQ-induced lethality in mice were determined through single intraperitoneal injection at doses of 20, 30, 40, 50, and 60 (mg/kg). […] Therefore, 50 mg/kg was chosen as the optimal dose. The mouse tissue samples were collected 48 hours after PQ administration.
# mice [2] = assay: Damage of major organs (histopathology) 48 hours after intraperitoneal injection in mice; type: in vivo; details: 48 hours after intraperitoneal administration
# Description: The data is expressed as mean±standard error, with 6 mice per group (n=6), and P<0.05 indicates statistically significant differences. Scale bar: 50 μm.
# Hep G2 cells [3] = assay: Direct cytotoxicity, cell viability and IC50; type: cell-based
# Description: (§1) PQ is rapidly absorbed and distributed to the lungs, kidneys, liver, and muscles after entering the human body. Death caused by ingestion of PQ is usually due to multiple organ failure, such as pulmonary edema, kidney and liver failure. Therefore, lung cells (A549 cells), kidney cells (COS-7), and liver cells (Hep G2) were selected to evaluate the direct cytotoxicity of diene diamine.
# A549 cells [4] = assay: Direct cytotoxicity, cell viability and IC50; type: cell-based
# Description: as §1
# COS-7 cells [5] = assay: Direct cytotoxicity, cell viability and IC50; type: cell-based
# Description: as §1
# mice [6] = assay: Organ indices and biochemical indicators 48 hours after intraperitoneal injection in mice; type: in vivo
# Description: P<0.05 is considered statistically significant, with 10 mice per group (n=10).
# However, no significant differences in these biochemical indicators were detected after intraperitoneal injection of the compound of formula 2 diene diamine at the same molar concentration.
# mice [7] = assay: Acute toxicity test and LD50 determination in mice, intraperitoneal injection; type: in vivo; details: 8 mice
# Method: In order to evaluate the safety of compound 2 of the present invention in vivo, acute toxicity tests were conducted on mice. Firstly, the LD50 of diene diamine in mice was measured. […] The toxicity of diene diamine in mice is low and the safety is high.
# mice [8] = assay: Transmission electron microscopy of main organs 48 hours after intraperitoneal injection in mice; type: in vivo; details: 0.19 mmol/kg intraperitoneal
# Method: 48 hours after intraperitoneal injection of 0.19 mmol/kg of paraquat or the compound of formula 2, transmission electron microscopy samples of the lung, liver, kidney, and heart were collected. The black arrow indicated mitochondrial damage, and the electron microscopy scale of the heart group was 200 nm, and the electron microscope scale of other groups was 100 nm.
# Acorus calamus = assay: Herbicidal performance, leaf spray under air and sunlight; type: in vivo; details: various concentrations (1, 2, 4, 8 times PQ equivalent), air and sunlight
# Description: (§2) As is well-known, Bermuda grass, Arabidopsis thaliana, and Acorus calamus are naturalized green weeds in most parts of the world and are also invasive grasses. Photosynthesis occurs throughout their entire leaves and bundles. […] Therefore, Bermuda grass, Acorus calamus, and Arabidopsis thaliana were selected as plant models to evaluate the herbicidal performance of the compounds in the present invention.
# (§3) Under air and sunlight, the compound of formula 2 of the present invention was sprayed on the leaf surface at concentrations of 1, 2, 4, and 8 times the PQ equivalent, respectively. Paraquat herbicide was used as the positive control, and physiological saline was used as the blank control group. The diameter of the observation range was 8 cm.
# Arabidopsis thaliana = assay: as above; type: in vivo; details: various concentrations (1, 2, 4, 8 times PQ equivalent), air and sunlight
# Description: as §2, §3
# Bermuda grass = assay: as above; type: in vivo; details: various concentrations (1, 2, 4, 8 times PQ equivalent), air and sunlight
# Description: as §2, §3
# humans = details: background data; cited from earlier work
# mice [9] = assay: Survival rate and body weight of mice after intraperitoneal injection; type: in vivo; details: 0.19 mmol/kg intraperitoneal
# Hep G2 cells [10] = assay: Intracellular ROS levels, DCF fluorescence, flow cytometry; type: cell-based; details: 100 μM, 18 hours
# Method: (§4) The above three types of cells were exposed to 100 μM PQ (100) and 100 μM of the compound of formula 2 and incubated for 18 hours, and the intracellular reactive oxygen species (ROS) levels were quantified using flow cytometry. Intracellular ROS levels were measured using DCF fluorescence (n=6).
# A549 cells [11] = assay: as above; type: cell-based; details: 100 μM, 18 hours
# Method: as §4
# COS-7 cells [12] = assay: as above; type: cell-based; details: 100 μM, 18 hours
# Method: as §4
# [13] = 50 mg/kg paraquat or same dose, 48 hour
smiles,measurement,setting,value
"C[n+]1ccc(-c2cc[n+](C)cc2)cc1.[Cl-].[Cl-] [PQ, 1,1-dimethyl-4,4′-bipyridinium dichloride, reference compound]",lung injury score,mice [1]; 24 hours after PQ administration,significant increase
same,time point of the highest lung injury score,mice [1]; compared to other time points,48 h
same,survival time,"mice [1]; single intraperitoneal injection, 20 and 30 mg/kg, all mice",over 168 hours
same,body weight on the first day,"mice [1]; single intraperitoneal injection, 50 or 60 mg/kg",significant weight loss
same,"pathological damage of major tissues (lung, liver, kidney, heart)",mice [2],multiple organic damages accompanied by significant inflammation
same,tissue damage scores of the main organs,mice [2],significantly higher than those in the control group and the diene diamine group
same,cell viability,"Hep G2 cells [3]; Hep G2, co-culture 24 hours, concentration gradient",direct cytotoxic effects
same,IC50,"Hep G2 cells [3]; hep G2 cells, 24 hours",131 µM
same,cell viability,"A549 cells [4]; A549, co-culture 24 hours, concentration gradient",direct cytotoxic effects
same,IC50,"A549 cells [4]; A549 cells, 24 hours",322 µM
same,cell viability,"COS-7 cells [5]; COS-7, co-culture 24 hours, concentration gradient",direct cytotoxic effects
same,IC50,"COS-7 cells [5]; Cos-7 cells, 24 hours",114 µM
same,levels of SOD and CAT in lung tissue,mice [6]; [13],significantly decreased
same,"serum levels of TNF-α, IL-B, IL-6, AST, ALT, SCr, BUN, and uric acid",mice [6]; [13],significantly increased
same,"lung, liver, and kidney indices compared with the control group","mice [6]; 50 mg/kg paraquat or same molar dose, 48 hours",significantly increased
same,cardiac index,"mice [6]; 50 mg/kg paraquat or same molar dose, 48 hours, among the three groups",no statistical difference
same,"Mortality, n (%) Day 1",mice [7]; 300 mg/kg intraperitoneal,0 (0) n (%)
same,"Mortality, n (%) Day 7",mice [7]; 300 mg/kg intraperitoneal,0 (0) n (%)
same,"Mortality, n (%) Day 1",mice [7]; 600 mg/kg intraperitoneal,0 (0) n (%)
same,"Mortality, n (%) Day 7",mice [7]; 600 mg/kg intraperitoneal,0 (0) n (%)
same,"Mortality, n (%) Day 1",mice [7]; 900 mg/kg intraperitoneal,3 (37.5) n (%)
same,"Mortality, n (%) Day 7",mice [7]; 900 mg/kg intraperitoneal,3 (37.5) n (%)
same,"Mortality, n (%) Day 1",mice [7]; 1050 mg/kg intraperitoneal,3 (37.5) n (%)
same,"Mortality, n (%) Day 7",mice [7]; 1050 mg/kg intraperitoneal,3 (37.5) n (%)
same,"Mortality, n (%) Day 1",mice [7]; 1200 mg/kg intraperitoneal,8 (100) n (%)
same,"Mortality, n (%) Day 7",mice [7]; 1200 mg/kg intraperitoneal,8 (100) n (%)
same,"mitochondrial structure in lung, liver, kidney, and heart tissues (transmission electron microscopy)",mice [8],"mitochondrial damage such as swelling, vacuolization, blurring, or fragmentation"
same,state of leaves 24 hours after spraying,Acorus calamus,began to wither
same,state of leaves 24 hours after spraying,Arabidopsis thaliana,began to wither
same,state of leaves 24 hours after spraying,Bermuda grass,began to wither
same,mortality rate of toxic ingestion incidents,humans,50-90%
same,weight of the mice,mice [9],continued to decrease
same,mice died,mice [9]; within 112 hours after administration,100%
same,intracellular ROS production,Hep G2 cells [10],significant increase in ROS production
same,intracellular ROS production,A549 cells [11],significant increase in ROS production
same,intracellular ROS production,COS-7 cells [12],significant increase in ROS production

# From patent publication US20260215427A1, “NON-BIPYRIDYL SALT HERBICIDE, PREPARATION METHOD THEREFOR, AND USE THEREOF” (priority 2022, published 2026)
